Results published in PMC11952641, “A Novel D-peptide modulates DCLK1 Gelsolin interactions, reducing PDAC tumor growth” (Research Square, 2025).
Non-standard residues stand in square brackets, D forms with d. Residues, ends and D or L forms follow the SMILES beside them.

Key:
DCLK1 isoform 1 = test: Cross-reactivity to DCLK1 isoform 1; type: binding, human
[1] = test system: Capan-1 pancreatic cancer cells; test: Colony formation assay, Capan-1; type: cell-based; details: Fig. 2B, blinded study
[2] = target: T1, DCLK1 isoform 4 (human His-tagged DCLK1 C-terminal recombinant protein) (Homo sapiens, UniProt O15075); test: BLI evaluation of D-peptide binding to DCLK1 NKEBD; details: DCLK1 isoform 4 immobilized on biosensor, PBS/0.05%Tween20/1%DMSO, from 30 μM in a 1:3 series
T1 sequence (O15075 687-740 limits assumed): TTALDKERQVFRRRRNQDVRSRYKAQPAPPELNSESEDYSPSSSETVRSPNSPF
Method: (§1) Purification of human DCLK1 isoform 4 was performed at the University of Oklahoma Protein Production and Characterization Core Facility (Norman, OK) using an E. coli strain BL21(DE3) pLPP containing the pET19-DCLK1 isoform 4 plasmid. For Bio-layer Interferometry (BLI) experiments, a C-terminal DCLK1 isoform 2/4 His-tagged protein was used (NovoPro, Shanghai, China). All His-tagged proteins were dialyzed using PBS/glycerol to remove imidazole.
Human His-tagged DCLK1 C-terminal recombinant protein from NovoPro was used. Binding to the sensor was carried out in PBS/0.05%Tween20/1%DMSO. Response is measured as a nm shift in the interference pattern and is proportional to the number of molecules bound to the biosensor’s surface. Initially, all peptides were tested at 5 and 30 μM. The top binders were tested again with eight different concentrations, starting at 30 μM and diluted in a 1:3 series to determine the dissociation constant (KD).

[3] = test system: AsPC-1 pancreatic cancer cells; test: Colony formation assay, AsPC-1; type: cell-based; details: Fig. 2A, blinded study
DCLK1 isoform 4-pGSN = test: ELISA: effect of peptides on DCLK1-Gelsolin PPI; type: binding, human; details: peptide 20 mg/well (so in the source), pGSN 2 μg/ml, Fig. 3H
Method: as §1
(§2) Polystyrene microtitre Immulon 2HB plate was coated with freshly prepared (400 ng/50 ml) DCLK1 isoform 4 ([…]) in 0.1 M NaHCO3, pH 8.6, overnight at 4C. After blocking with 1% gelatin in TTBS at RT, different concentrations of gelsolin or FGF19 were added (2 mg/50ul/well, 1 mg/well, 0.5 mg/well, and 0.25 mg/well at […], proteins diluted in TTBS), and incubated at RT. To study the competitive ability of peptides, we used 20 mg/well of either D-peptide 1, D-peptide 3, D-peptide 5, or the C-terminal peptide antigen for the mAb CBT-15. After incubation at RT, plates were washed with TTBS, and bound gelsolin or FGF19 was detected. […] Detection was by alkaline phosphatase-conjugated goat anti-mouse IgG (ab97020; Abcam, Waltham, MA) followed by 1-STEP NBT/BCIP substrate (#34042; ThermoFisher Scientific, Waltham, MA) and quantified at 450 nm on a microplate reader.

AsPC-1 xenografts = test: AsPC-1 xenograft tumor growth in athymic nude mice; type: in vivo, athymic nude (Foxn1nu/Foxn1nu) mice; details: 10 mg/kg subcutaneously every three days; day 36
Method: Athymic nude (Foxn1^nu/Foxn1^nu) mice were purchased from the Jackson Laboratory (Bar Harbor, Maine) and housed in pathogen-free conditions. AsPC-1 cells (1 × 10^7) were injected subcutaneously into the flanks of 4- to 6-week-old mice (n=3/group). Tumors were measured using a caliper and the volume was calculated as (length × width^2) × 0.5. Once tumors achieved an average size of ~100 mm^3, mice were injected subcutaneously with selected D-peptides at a dose of 10 mg/kg. Treatments were continued every three days until day 36.

DCLK1 isoform 4 [4] = test: D-peptide library screen for binding to DCLK1 isoform 4, excluding isoform 1 binders; parameters: species or system human; details: bead library screen, biotin-labeled DCLK1 isoform 4
Method: An aliquot from each sub-library, containing approximately 1000 beads, was added to a well of a 96-well polystyrene multi-well plate. From 1.5 to 2 ml of Superblock (Pierce Chemical Company, Rockford, IL.) reagent, 0.1% gelatin, or 1%(w/v) bovine serum albumin (BSA) in phosphate-buffered saline (PBS), pH 7.4, was added to each well, and the plates were incubated for one to two hours at room temperature (RT), with periodic or continuous mixing by gentle rocking. Purified DCLK1 isoform 4 protein was labeled with biotin using the biotinylating reagent NHS-LC-biotin (Pierce Chemical Company) according to the supplier’s instructions. Biotin-labeled protein was detected using AP-conjugated to neutravidin (Pierce Chemical Company) incubated with the beads for 30 minutes, after which the beads were washed three times with a Tris-buffered saline solution (pH 7.5), with the second wash being left in contact with the beads for 30 minutes. One-step NBT/BCIP (nitro-blue tetrazolium chloride/5-bromo-4-chloro-3’-indolyphosphate p-toluidine salt) (Pierce Chemical Co.) was then added and the beads observed under a low-power microscope until some of the beads had turned a dark purple color. The beads were washed with PBS twice, followed by 1% acetic acid and a final wash in water. Dark purple-black beads were removed using a small-bore pipette and subjected to amino acid sequence analysis. […]

DCLK1 isoform 4 / CBT-15 = test: Competition assay: CBT-15 binding to DCLK1 isoform 4; parameters: species or system human; details: Fig. 1D, mean ± SEM, *p < 0.01
DCLK1 isoform 4 [5] = test: ELISA: FGF19 binding to DCLK1 isoform 4; parameters: species or system human; details: RT, 450 nm, Fig. 3H
Method: as §1, §2

DCLK1 isoform 4 [6] = test: ELISA: pGSN binding to DCLK1 isoform 4; parameters: species or system human; details: 1% gelatin blocking, RT, 450 nm, Fig. S2
Method: as §1, §2

DCLK1 isoform 4 [7] = test: SPR binding to DCLK1 isoform 4; parameters: species or system human; details: DCLK1 isoform 4 binding to Gelsolin, Fig. 3F
Method: as §1

plasma gelsolin = target: T2, plasma gelsolin (UniProt P06396 28-782); test: SPR; who was immobilised and the conditions not given; details: both partners purified
T2 construct: plasma gelsolin (pGSN), the extracellular form of gelsolin; The source is told for the ELISA only; also called pGSN; source: bought: Abcam (ab233671)
T2 sequence (P06396 28-782): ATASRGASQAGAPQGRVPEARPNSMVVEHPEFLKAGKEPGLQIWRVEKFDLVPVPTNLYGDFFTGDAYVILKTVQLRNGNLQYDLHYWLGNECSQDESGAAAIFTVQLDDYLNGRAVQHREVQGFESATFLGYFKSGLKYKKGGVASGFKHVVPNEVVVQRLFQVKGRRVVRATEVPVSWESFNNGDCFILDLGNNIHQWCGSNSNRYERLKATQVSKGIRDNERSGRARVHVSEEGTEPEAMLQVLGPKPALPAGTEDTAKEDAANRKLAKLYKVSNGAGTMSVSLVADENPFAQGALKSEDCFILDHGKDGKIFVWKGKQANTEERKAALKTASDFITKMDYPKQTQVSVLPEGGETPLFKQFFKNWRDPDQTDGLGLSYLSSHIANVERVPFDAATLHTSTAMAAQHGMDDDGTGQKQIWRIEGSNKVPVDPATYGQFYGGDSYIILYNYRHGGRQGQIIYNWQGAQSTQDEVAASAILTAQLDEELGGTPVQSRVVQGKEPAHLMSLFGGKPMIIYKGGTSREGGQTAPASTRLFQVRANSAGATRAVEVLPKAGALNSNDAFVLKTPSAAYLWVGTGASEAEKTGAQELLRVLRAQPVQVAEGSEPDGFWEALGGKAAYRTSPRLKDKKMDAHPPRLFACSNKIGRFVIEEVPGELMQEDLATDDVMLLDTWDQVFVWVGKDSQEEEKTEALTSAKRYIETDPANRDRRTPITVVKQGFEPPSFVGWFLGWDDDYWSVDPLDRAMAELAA

Molecule: NCC(=O)N[C@H](Cc1c[nH]c2ccccc12)C(=O)N[C@H](Cc1ccc(O)cc1)C(=O)NCC(=O)N[C@H](Cc1c[nH]c2ccccc12)C(=O)NCC(=O)N[C@H](CC(=O)O)C(=O)N[C@H](CC(=O)O)C(=O)O [D-peptide 1] (H-G[dW][dY]G[dW]G[dD][dD]-OH)
- cross-reactivity to isoform 1 (DCLK1 isoform 1): minimal cross-reactivity to isoform 1
- colony formation [1]: significantly reduced colony formation at low micromolar concentrations
- Kd [2]: 396 nM
- colony formation [3]: significantly reduced colony formation at low micromolar concentrations
- effect on pGSN binding to DCLK1 isoform 4 (DCLK1 isoform 4-pGSN): did not block the PPI interaction
- improvement of pGSN binding to DCLK1 (DCLK1 isoform 4-pGSN): seemed to improve pGSN binding to DCLK1
- necrosis or apoptosis in tumors (AsPC-1 xenografts): without inducing necrosis or apoptosis
- specific binding to isoform 4 (DCLK1 isoform 4 [4]): binds specifically to DCLK1 isoform 4
- inhibition of CBT-15 binding to DCLK1 isoform 4 (DCLK1 isoform 4 / CBT-15): None of these D-peptides significantly inhibited CBT-15 binding

Molecule: FGF19: candidate DCLK1 interacting protein known to be extracellularly localized (969-FG-025; Bio-Techne)
- binding to DCLK1 isoform 4 (DCLK1 isoform 4 [5]): bound to DCLK1 isoform 4 similarly to pGSN

Molecule: Gelsolin
- binding to DCLK1 isoform 4 across the gradient (DCLK1 isoform 4 [6]): consistent, linear binding
- Kd (DCLK1 isoform 4 [7]): ~100 nM

B1: human DCLK1 isoform 4 (β-short) (natural protein, UniProt O15075-4 1-433, looked up)
chain: MLELIEVNGTPGSQLSTPRSGKSPSPSPTSPGSLRKQRSSQHGGSSTSLASTKVCSSMDENDGPGEEVSEEGFQIPATITERYKVGRTIGDGNFAVVKECVERSTAREYALKIIKKSKCRGKEHMIQNEVSILRRVKHPNIVLLIEEMDVPTELYLVMELVKGGDLFDAITSTNKYTERDASGMLYNLASAIKYLHSLNIVHRDIKPENLLVYEHQDGSKSLKLGDFGLATIVDGPLYTVCGTPTYVAPEIIAETGYGLKVDIWAAGVITYILLCGFPPFRGSGDDQEVLFDQILMGQVDFPSPYWDNVSDSAKELITMMLLVDVDQRFSAVQVLEHPWVNDDGLPENEHQLSVAGKIKKHFNTGPKPNSTAAGVSVIATTALDKERQVFRRRRNQDVRSRYKAQPAPPELNSESEDYSPSSSETVRSPNSPF
modifications: biotin (NHS-LC-biotin) in the library screen only
notes: human DCLK1 isoform 4 (β-short, NP_001182345); also called Doublecortin-like kinase 1 isoform 4; beta-short; source: E. coli BL21(DE3) pLPP with the pET19-DCLK1 isoform 4 plasmid, purified
- Kd (plasma gelsolin): ~100 nM
